Experimental data as given in patent US9040663B2, “Melanocortin receptor-specific peptides” (AstraZeneca AB, priority 2009, dated 2015).
Like-named read-outs stand apart in the source and are kept apart here. Positions of bridges follow the written chain, without caps; N, C: chain ends. Non-standard residues stand in square brackets, D forms with d. Residues, ends and D or L forms follow the SMILES beside them. dPhe(4-CN) = N#Cc1ccc(C[C@@H](N)C(=O)O)cc1; Orn = NCCC[C@H](N)C(=O)O

Key:
hMC4-R [1] = target: T1, hMC4-R (Homo sapiens (Human), UniProt P32245); assay: Competitive inhibition binding assay using [I125]-NDP-α-MSH, hMC4-R; settings: membranes of HEK-293 cells expressing recombinant hMC4-R, read-out: MC4-R Ki
T1 sequence (P32245 whole entry): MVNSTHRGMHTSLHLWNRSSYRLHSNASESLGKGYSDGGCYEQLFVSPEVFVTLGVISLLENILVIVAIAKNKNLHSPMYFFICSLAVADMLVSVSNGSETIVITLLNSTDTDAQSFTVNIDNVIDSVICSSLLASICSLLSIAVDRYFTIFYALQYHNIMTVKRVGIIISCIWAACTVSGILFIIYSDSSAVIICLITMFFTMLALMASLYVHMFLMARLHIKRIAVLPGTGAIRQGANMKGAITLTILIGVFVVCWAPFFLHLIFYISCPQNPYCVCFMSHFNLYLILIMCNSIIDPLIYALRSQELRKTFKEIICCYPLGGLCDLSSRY

hMC4-R [2] = target: T1, hMC4-R; assay: High and low density hMC4-R functional assay (cAMP, HEK293-T-REx-MC4-R cells); format: cell-based; settings: for Emax: NDP-α-MSH = 100%, read-out: Intrinsic Activity (%)
MC1-R = assay: Competitive inhibition binding assay using [I125]-NDP-α-MSH, MC1-R; settings: membranes of B-16 mouse melanoma cells (endogenous MC1-R), in some instances HEK-293 hMC1-R
Experimental: 7.1 Competitive Inhibition Assay using [I^125]-NDP-α-MSH.
A competitive inhibition binding assay was performed for exemplified peptides according to the invention using membrane homogenates prepared from HEK-293 cells that express recombinant hMC4-R, hMC3-R, or hMC5-R, and from B-16 mouse melanoma cells (containing endogenous MC1-R). In some instances, HEK-293 cells that express recombinant hMC1-R were employed. Assays were performed in 96 well GF/B Millipore multiscreen filtration plates (MAFB NOB10) pre-coated with 0.5% bovine serum albumin (Fraction V). Membrane homogenates were incubated with 0.2 nM (for hMC4-R) 0.4 nM (for MC3-R and MC5-R) or 0.1 nM (for mouse B16 MC1-R or hMC1-R) [I^125]-NDP-α-MSH (Perkin Elmer) and increasing concentrations of test peptides of the present invention in buffer containing 25 mM HEPES buffer (pH 7.5) with 100 mM NaCl, 2 mM CaCl2, 2 mM MgCl2, 0.3 mM 1,10-phenanthroline, and 0.2% bovine serum albumin. After incubation for 60 minutes at 37° C., the assay mixture was filtered and the membranes washed three times with ice-cold buffer. Filters were dried and counted in a gamma counter for bound radioactivity. […] Maximal specific binding (100%) was defined as the difference in radioactivity (cpm) bound to cell membranes in the absence and presence of 1 μM NDP-α-MSH. […] Each assay was conducted in triplicate and the actual mean values are described, with results less than 0% reported as 0%. Ki values for test peptides of the present invention were determined using Graph-Pad Prism® curve-fitting software.

[3] = 0.1 ng/mL Doxycycline (low density hMC4-R system)
[4] = 10 ng/mL Doxycycline (high density hMC4-R system)

Compound	Ki (hMC4-R [1]) [nM]	EC50 (hMC4-R [2]; [3]) [nM]	Emax (hMC4-R [2]; [3]) [%]	EC50 (hMC4-R [2]; [4]) [nM]	Emax (hMC4-R [2]; [4]) [%]	Ki (MC1-R) [nM]
CC(=O)N[C@@H](CCCNC(=N)N)C(=O)N[C@H]1CCC(=O)NCCC[C@@H](C(N)=O)NC(=O)[C@H](Cc2c[nH]c3ccccc23)NC(=O)[C@H](CCCNC(=N)N)NC(=O)[C@@H](Cc2ccccc2Cl)NC(=O)[C@H](COCc2ccccc2)NC1=O [Example 47, Ac-Arg-cyclo(Glu-Ser(Bzl)-D-Phe(2-Cl)-Arg-Trp-Orn)-NH2]	0.3	0.31	36	0.373	100	25
CC(=O)N[C@@H](CCCNC(=N)N)C(=O)N[C@H]1CCC(=O)NCCC[C@@H](C(=O)O)NC(=O)[C@H](Cc2c[nH]c3ccccc23)NC(=O)[C@H](CCCNC(=N)N)NC(=O)[C@@H](Cc2cccc(Cl)c2)NC(=O)[C@H](CCCN)NC1=O [Example 55, Ac-Arg-cyclo(Glu-Orn-D-Phe(3-Cl)-Arg-Trp-Orn)-OH]	20	10	28	0.8	98	23
CC(=O)N[C@@H](CCCNC(=N)N)C(=O)N[C@H]1CCC(=O)NCCC[C@@H](C(N)=O)NC(=O)[C@H](Cc2c[nH]c3ccccc23)NC(=O)[C@H](CCCNC(=N)N)NC(=O)[C@@H](Cc2ccc(F)cc2)NC(=O)[C@H](CO)NC1=O [Example 65, Ac-Arg-cyclo(Glu-Ser-D-Phe(4-F)-Arg-Trp-Orn)-NH2]	5	1	58	0.085	93	43
CC(=O)N[C@@H](CCCNC(=N)N)C(=O)N[C@H]1CCC(=O)NCCC[C@@H](C(N)=O)NC(=O)[C@H](Cc2c[nH]c3ccccc23)NC(=O)[C@H](CCCNC(=N)N)NC(=O)[C@@H](Cc2cccc(Cl)c2)NC(=O)[C@H](CCC(N)=O)NC1=O [Example 38, Ac-Arg-cyclo(Glu-Gln-D-Phe(3-Cl)-Arg-Trp-Orn)-NH2]	3	2	31		97	290
CC(=O)N[C@@H](CCCNC(=N)N)C(=O)N[C@H]1CCCNC(=O)CC[C@@H](C(N)=O)NC(=O)[C@H](Cc2c[nH]c3ccccc23)NC(=O)[C@H](CCCNC(=N)N)NC(=O)[C@@H](Cc2ccccc2C)NC(=O)[C@H](CC(N)=O)NC1=O [Example 74, Ac-Arg-cyclo(Orn-Asn-D-Phe(2-Me)-Arg-Trp-Glu)-NH2]	5		68		100	405
CC(=O)N[C@@H](CCCNC(=N)N)C(=O)N[C@H]1CCC(=O)NCCC[C@@H](C(N)=O)NC(=O)[C@H](Cc2c[nH]c3ccccc23)NC(=O)[C@H](CCCNC(=N)N)NC(=O)[C@@H](Cc2ccc(F)cc2)NC(=O)[C@H](CCN)NC1=O [Example 11, Ac-Arg-cyclo(Glu-Dab-D-Phe(4-F)-Arg-Trp-Orn)-NH2]	0.25	0.065	83	0.06	90	0.5
CC(=O)N[C@@H](CCCNC(=N)N)C(=O)N[C@H]1CCC(=O)NCCC[C@@H](C(N)=O)NC(=O)[C@H](Cc2c[nH]c3ccccc23)NC(=O)[C@H](CCCNC(=N)N)NC(=O)[C@@H](Cc2cccc(Cl)c2)NC(=O)[C@H]([C@@H](C)O)NC1=O [Example 36, Ac-Arg-cyclo(Glu-Thr-D-Phe(3-Cl)-Arg-Trp-Orn)-NH2]	6		8	1	89	380
CC(=O)N[C@@H](CCCNC(=N)N)C(=O)N[C@H]1CCC(=O)NCCC[C@@H](C(N)=O)NC(=O)[C@H](Cc2c[nH]c3ccccc23)NC(=O)[C@H](CCCNC(=N)N)NC(=O)[C@@H](Cc2ccc(C#N)cc2)NC(=O)[C@H](C)NC1=O [Example 41, Ac-Arg-cyclo(Glu-Ala-D-Phe(4-CN)-Arg-Trp-Orn)-NH2] (Ac-REA[dPhe(4-CN)]RW[Orn]-NH2; lactam 2-7)	3		5	0.8	84	4300
